Measurements taken from US20250326741A1, “GLUCOSE-DEPENDENT INSULINOTROPIC POLYPEPTIDE RECEPTOR ANTAGONISTS AND USES THEREOF” (Pfizer Inc., priority 2024, published 2025).

What follows are compounds tested against T1, human Glucose-dependent Insulinotropic Polypeptide Receptor (hGIPR) (Homo sapiens, UniProt P48546) (assay: Functional in vitro GIPR antagonist potency assay (intracellular cAMP, HTRF, hGIP stimulation at EC80)). Conditions: geometric mean; CHO-K1 cells stably expressing human GIPR, cAMP after hGIP stimulation at EC80.
T1 sequence (P48546 22-466): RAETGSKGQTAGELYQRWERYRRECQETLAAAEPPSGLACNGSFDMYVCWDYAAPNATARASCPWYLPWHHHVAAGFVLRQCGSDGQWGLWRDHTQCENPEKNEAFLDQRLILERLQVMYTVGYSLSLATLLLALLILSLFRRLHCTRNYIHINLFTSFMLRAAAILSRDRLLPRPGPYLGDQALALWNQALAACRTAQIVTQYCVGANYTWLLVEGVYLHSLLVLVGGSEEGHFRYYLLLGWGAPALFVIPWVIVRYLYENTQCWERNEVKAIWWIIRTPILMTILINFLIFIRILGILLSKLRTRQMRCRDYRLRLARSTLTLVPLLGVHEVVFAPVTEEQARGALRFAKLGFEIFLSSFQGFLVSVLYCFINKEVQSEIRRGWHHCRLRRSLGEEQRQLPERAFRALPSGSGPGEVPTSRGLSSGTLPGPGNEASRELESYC
Format: cell-based
Experimental: Example AA. Functional In Vitro GIPR Antagonist Potency Assay
The functional in vitro antagonist potency for test compounds was determined by monitoring intracellular cyclic adenosine monophosphate (cAMP) levels in Chinese hamster ovary (CHO)—K1 cells stably expressing the human Glucose-dependent Insulinotropic Polypeptide Receptor (hGIPR). Following agonist activation, hGIPR associates with the G-protein complex causing the Gas subunit to exchange bound guanosine diphosphate (GDP) for guanosine triphosphate (GTP), followed by dissociation of the Gas-GTP complex. The activated Gas subunit can couple to downstream effectors to regulate the levels of second messengers or cAMP within the cell. Thereby, determination of intracellular cAMP levels allows for pharmacological characterization. Intracellular cAMP levels are quantitated using a homogenous assay utilizing the Homogeneous Time Resolved Fluorescence (HTRF) technology from Perkin Elmer. The method is a competitive immunoassay between native cAMP produced by the cells and cAMP labelled with the acceptor dye, d2. The two entities compete for binding to a monoclonal anti-cAMP antibody labeled with cryptate. The specific signal is inversely proportional to the concentration of cAMP in the cells.
Test compounds were solubilized to a concentration of 30 mM in 100% dimethyl sulfoxide (DMSO). An 11-point dilution series using 1 in 3.162-fold serial dilutions was created in 100% DMSO with a top concentration of 8 mM. The serially diluted compound was spotted with an Echo Acoustic liquid handler (Beckman Coulter) into a 384-well assay plate (Corning, Cat No. 3824) at 50 nL/well with duplicate points at each concentration, at a 200× final assay concentration (FAC). The final compound concentration range in the assay was 40 μM to […], with a final DMSO concentration of 0.5%.
Frozen assay-ready vials (at 1×10^7 cells/vial) of CHO-K1 cells stably expressing the Gs-coupled human GIPR receptor (Eurofins, DiscoverX, Cat No. 95-0146C2) were thawed, counted, and resuspended in assay buffer consisting of Hank's Balanced Salt Solution (HBSS, Lonza Cat No. 10-527) containing 20 mM (4-(2-hydroxyethyl)-1-piperazineethanesulfonic acid (HEPES, Lonza, Cat No. 17-737E), 0.1% bovine serum albumin (BSA, Sigma, Cat No. A7979), and 200 μM 3-isobutyl-1-methylxanthine (IBMX, Sigma, Cat No. 15879) at a density of 4×10^5 cells/mL. Cells were added to assay plate (5 μL/well of 4×10^5 cells/mL stock for 2,000 cells/well final) containing 50 nL of 200×FAC test compound, and incubated at 37° C. (95% O2: 5% CO2) for 2 hours, with micro-clime lids (Labcyte, Cat No. LLS-0310). Following the 2-hour cell and compound incubation, a stimulation mix comprised of hGIPR agonist human glucose-dependent insulinotropic polypeptide (hGIP, full length, Sigma Cat No. G2269) in assay buffer/0.1% DMSO was added to the assay plate (5 μL/well) at an estimated EC80 FAC (based on previous hGIP agonist curves) and incubated for another 30 minutes with micro-clime lids at 37° C. (95% O2: 5% CO2), after which intracellular cAMP levels were quantified as per Perkin Elmer's protocol (5 μL of d2 and then 5 μL cryptate, incubated for 1 hour at room temperature). Emission spectra of samples were measured on a Pherastar plate reader (BMG Labtech Inc) using a HTRF protocol (excitation, 320 nm; emission, 665 nm/620 nm).
(95% O2: 5% CO2), with a micro-clime lid. Following the 2-hour cell and DMSO incubation, a hGIP concentration response curve at 2×FAC (12-point curve using 1 in 3 serial dilutions, with triplicate points at each concentration, 100 nM final top concentration) in assay buffer/1% DMSO was added (5 μL/well) and incubated for a further 30 minutes with a micro-clime lid at 37° C. (95% O2: 5% CO2), after which intracellular cAMP levels were quantified and samples measured as described previously. Experiments passed quality control if the agonist concentration used for stimulation fell between the on-the-day EC50-EC90. […]

| SMILES | IC50 |
| --- | --- |
| Cc1cc(-n2ccc(NC(=O)[C@H]3CCCN3C(=O)Nc3cc(F)c(C(F)(F)F)c(F)c3)n2)ccc1C(=O)O [Example 51, 4-{3-[(1-{[3,5-difluoro-4-(trifluoromethyl)phenyl]carbamoyl}-D-prolyl)amino]-1H-pyrazol-1-yl}-2-methylbenzoic acid] | 35 nM |
| Cc1cc(-n2ccc(NC(=O)[C@H]3CCCN3C(=O)NCc3ccc(C(F)(F)F)c(F)c3)n2)ccc1C(=O)O [Example 48, 4-(3-{[1-{{[3-fluoro-4-(trifluoromethyl)phenyl]methyl}carbamoyl)-D-prolyl]amino}-1H-pyrazol-1-yl)-2-methylbenzoic acid] | 150 nM |
| O=C(O)c1ccc(-n2ccc(NC(=O)[C@H]3CCCN3C(=O)NCc3ccc(OC(F)(F)F)cc3)n2)cc1 [Example 33, 4-(3-{[1-{{[4-(trifluoromethoxy)phenyl]methyl}carbamoyl)-D-prolyl]amino}-1H-pyrazol-1-yl)benzoic acid] | 90 nM |
| Cc1cc(C(=O)O)ccc1-n1ccc(NC(=O)[C@H]2CCCN2C(=O)Nc2ccc(C(C)C)cc2)n1 [Example 25, 3-methyl-4-{3-[(1-{[4-(propan-2-yl)phenyl]carbamoyl}-D-prolyl)amino]-1H-pyrazol-1-yl}benzoic acid] | 98 nM |
| Cc1cc(-n2ccc(NC(=O)[C@H]3CCCN3C(=O)Nc3ccc(C4CCC4)cc3)n2)ccc1C(=O)O [Example 42, 4-[3-({1-[(4-cyclobutylphenyl)carbamoyl]-D-prolyl}amino)-1H-pyrazol-1-yl]-2-methylbenzoic acid] | 12 nM |
| CC(C)c1ccc(NC(=O)N2CCC[C@@H]2C(=O)Nc2ccn(-c3cc(F)c(O)c(F)c3)n2)cc1F [Example 14, (2R)—N^2-[1-(3,5-Difluoro-4-hydroxyphenyl)-1H-pyrazol-3-yl]-N^1-[3-fluoro-4-(propan-2-yl)phenyl]pyrrolidine-1,2-dicarboxamide] | 7.2 nM |
| Cc1cc(-n2ccc(NC(=O)[C@H]3CCCN3C(=O)Nc3ccc(C(F)(F)F)c(Cl)c3)n2)ccc1C(=O)O [Example 52, 4-{3-[(1-{[3-chloro-4-(trifluoromethyl)phenyl]carbamoyl}-D-prolyl)amino]-1H-pyrazol-1-yl}-2-methylbenzoic acid] | 13 nM |
| CC(C)c1ccc(NC(=O)N2CCC[C@@H]2C(=O)Nc2ccn(-c3ccc(O)cc3F)n2)cc1 [Example 44] | 34 nM |
| Cc1cc(-n2ccc(NC(=O)[C@H]3CCCN3C(=O)Nc3ccc(C(C)C)c(F)c3)n2)ccc1C(N)=O [Example 16, (2R)—N^2-[1-(4-Carbamoyl-3-methylphenyl)-1H-pyrazol-3-yl]-N^1-[3-fluoro-4-(propan-2-yl)phenyl]pyrrolidine-1,2-dicarboxamide] | 110 nM |
| CC(C)c1ccc(NC(=O)N2CCC[C@@H]2C(=O)Nc2ccn(-c3cc(F)c(O)c(F)c3)n2)cc1 [Example 43] | 5.3 nM |
| CC(C)c1ccc(NC(=O)N2CCC[C@@H]2C(=O)Nc2ccn(-c3ccc(C(=O)O)c(F)c3)n2)cc1 [Example 32, 2-fluoro-4-{3-[(1-{[4-(propan-2-yl)phenyl]carbamoyl}-D-prolyl)amino]-1H-pyrazol-1-yl}benzoic acid] | 280 nM |
| Cc1cc(-n2ccc(NC(=O)[C@H]3CCCN3C(=O)Nc3ccc(C(C)C)cc3)n2)ccc1C(=O)O [Example 29, 2-methyl-4-{3-[(1-{[4-(propan-2-yl)phenyl]carbamoyl}-D-prolyl)amino]-1H-pyrazol-1-yl}benzoic acid] | 13 nM |
| Cc1c(C(=O)O)ccc(-n2ccc(NC(=O)[C@H]3CCCN3C(=O)Nc3ccc(C(F)(F)F)cc3)n2)c1F [Example 66, 3-fluoro-2-methyl-4-{3-[(1-{[4-(trifluoromethyl)phenyl]carbamoyl}-D-prolyl)amino]-1H-pyrazol-1-yl}benzoic acid] | 54 nM |
| Cc1cc(-n2ccc(NC(=O)[C@H]3CCCN3C(=O)Nc3ccc(OC(F)F)cc3)n2)ccc1C(=O)O [Example 56, 4-{3-[(1-{[4-(difluoromethoxy)phenyl]carbamoyl}-D-prolyl)amino]-1H-pyrazol-1-yl}-2-methylbenzoic acid] | 310 nM |
| Cc1c(C(=O)O)ccc(-n2ccc(NC(=O)[C@H]3CCCN3C(=O)Nc3ccc(OC(F)(F)F)cc3)n2)c1F [Example 62, 3-fluoro-2-methyl-4-{3-[(1-{[4-(trifluoromethoxy)phenyl]carbamoyl}-D-prolyl)amino]-1H-pyrazol-1-yl}benzoic acid] | 7.6 nM |
| O=C(O)c1ccc(-n2ccc(NC(=O)[C@H]3CCCN3C(=O)Nc3ccc(C(F)(F)F)cc3)n2)nc1 [Example 27, 6-{3-[(1-{[4-(trifluoromethyl)phenyl]carbamoyl}-D-prolyl)amino]-1H-pyrazol-1-yl}pyridine-3-carboxylic acid] | 74 nM |
| Cc1cc(NC(=O)N2CCC[C@@H]2C(=O)Nc2ccn(-c3ccc(C(=O)O)cn3)n2)ccc1C(C)C [Example 28, 6-{3-[(1-{[3-methyl-4-(propan-2-yl)phenyl]carbamoyl}-D-prolyl)amino]-1H-pyrazol-1-yl}pyridine-3-carboxylic acid] | 29 nM |
| Cc1cc(-n2ccc(NC(=O)[C@H]3CCCN3C(=O)Nc3ccc(OC(F)(F)F)cc3)n2)c(F)cc1C(=O)O [Example 59, 5-Fluoro-2-methyl-4-{3-[(1-{[4-(trifluoromethoxy)phenyl]carbamoyl}-D-prolyl)amino]-1H-pyrazol-1-yl}benzoic Acid] | 11 nM |
| Cc1cc(-n2ccc(NC(=O)[C@H]3CCCN3C(=O)CNc3ccc(C(F)(F)F)cc3)n2)ccc1C(=O)O [Example 19, N-[4-(Trifluoromethyl)phenyl]glycyl-N-[1-(4-carboxy-3-methylphenyl)-1H-pyrazol-3-yl]-D-prolinamide] | 78 nM |
| CC(C)c1ccc(NC(=O)N2CCC[C@@H]2C(=O)Nc2ccn(-c3ccc(C(=O)O)cc3F)n2)cc1F [Example 34, 3-fluoro-4-{3-[(1-{[3-fluoro-4-(propan-2-yl)phenyl]carbamoyl}-D-prolyl)amino]-1H-pyrazol-1-yl}benzoic acid] | 15 nM |
| CC(C)c1ccc(NC(=O)N2CCC[C@@H]2C(=O)Nc2ccn(-c3ccc(C(N)=O)cc3)n2)cc1 [Example 35] | 120 nM |
| Cc1cc(-n2ccc(NC(=O)[C@H]3CCCN3C(=O)Nc3ccc(C4CCCC4)cc3)n2)ccc1C(=O)O [Example 45, 4-[3-({1-[(4-cyclopentylphenyl)carbamoyl]-D-prolyl}amino)-1H-pyrazol-1-yl]-2-methylbenzoic acid] | 8.4 nM |
| Cc1cc(-n2ccc(NC(=O)[C@H]3CCCN3C(=O)NCc3ccc(C(F)(F)F)cc3)n2)ccc1C(=O)O [Example 40, 2-methyl-4-(3-{[1-{{[4-(trifluoromethyl)phenyl]methyl}carbamoyl)-D-prolyl]amino}-1H-pyrazol-1-yl)benzoic acid] | 150 nM |
